Assay results published in patent publication US20200223889A1, “Bicyclic Compounds Capable of Binding to Melanocortin 4 Receptor” (Novo Nordisk A/S, priority 2017, published 2020).
pEC50, pKi: −log10 of the molar value. Where two headings read alike, the source gives them in different places. Positions of bridges follow the written chain, without caps; N, C: chain ends. Non-standard residues stand in square brackets, D forms with d. Residues, ends and D or L forms follow the SMILES beside them. Phe(3,4-(OMe)2) = COc1ccc(C[C@H](N)C(=O)O)cc1OC; 2Nal = N[C@@H](Cc1ccc2ccccc2c1)C(=O)O; Hyp = O=C(O)[C@@H]1C[C@@H](O)CN1; Pen = CC(C)(S)[C@H](N)C(=O)O; Thz = O=C(O)[C@@H]1CSCN1; Aze = O=C(O)[C@@H]1CCN1

What was measured:
human MC4R [1] = molecular target: T1, human MC4R (Homo sapiens, UniProt P32245); assay: 125NDP-α-MSH competitive binding to membranes of BHK cells expressing human MC4 receptor (filtration assay)
T1 construct: expressed in transfected cells
In short: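 Displacement of ^125NDP-α-MSH (apx. […] final) was measured by filtration after 2 h at 25 °C, using diluted membranes of stably transfected BHK cells in pH 7.0 HEPES buffer. Compounds spanned 1 μM to 0.001 nM; binding curves were analysed by non-linear regression.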

human MC4R [2] = molecular target: T1, human MC4R; assay: Functional cAMP assay (CisBio HTRF) in BHK cells expressing human MC4R; assay type: cell-based; details: for MC1R/MC4R cAMP EC50 ratio: MC1R cAMP EC50 divided by MC4R cAMP EC50
In short: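 Stably transfected BHK cells expressing human MC1R or MC4R; cAMP quantified by HTRF (cAMP-d2/cryptate) after 30 min compound stimulation at 25 °C in DMEM-based buffer with 1 mM IBMX. Compounds were prepared as 10-fold serial dilutions starting at 2 μM (working solution, 2× final). Readout after 1 h at 25 °C; non-linear regression.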

[3] = human MC4R, BHK cell membranes, 125NDP-α-MSH radioligand, read-out: MC4R binding Ki
[4] = BHK cells expressing human MC4R, '>' = highest dose used with no response, read-out: MC4R cAMP EC50

T1 sequence (P32245 whole entry): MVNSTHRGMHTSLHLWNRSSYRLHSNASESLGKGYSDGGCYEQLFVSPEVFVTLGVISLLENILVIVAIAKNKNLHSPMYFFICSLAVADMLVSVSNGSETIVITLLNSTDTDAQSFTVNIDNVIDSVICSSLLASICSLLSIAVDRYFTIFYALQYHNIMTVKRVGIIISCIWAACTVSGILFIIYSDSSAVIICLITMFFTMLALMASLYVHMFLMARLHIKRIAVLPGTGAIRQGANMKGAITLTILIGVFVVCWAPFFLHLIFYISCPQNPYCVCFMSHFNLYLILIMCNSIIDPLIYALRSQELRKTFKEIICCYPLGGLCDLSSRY

Row | SMILES | pKi (human MC4R [1]; [3]) | pEC50 (human MC4R [2]; [4]) | MC1R/MC4R cAMP EC50 ratio (human MC4R [2]) | pKi (human MC4R [1]) | pEC50 (human MC4R [2])
1 | C[C@@H]1NC(=O)[C@@H]2CSSC[C@H](NC(=O)[C@H](CCCNC(=N)N)NC(=O)[C@H](CCCCN)NC(=O)[C@H](CCCCN)NC(=O)[C@H](CCCCN)NC1=O)C(=O)N[C@@H](CCCCN)C(=O)N[C@@H](Cc1c[nH]cn1)C(=O)N[C@H](Cc1ccccc1)C(=O)N[C@@H](Cc1c[nH]cn1)C(=O)N[C@@H](Cc1c[nH]c3ccccc13)C(=O)N2 [Chem. 78, c[c[Cys-Lys-His-D-Phe-His-Trp-Cys]- Ala-Lys-Lys-Lys-Arg]] (cyclo(AKKKRCKH[dF]HWC); disulfide 6-12) | 10.70 | 10.40 | 95 | – | –
2 | C[C@@H]1NC(=O)[C@@H]2CSSC[C@H](NC(=O)[C@H](Cc3ccc4ccccc4c3)NC(=O)[C@H](CCCNC(=N)N)NC(=O)[C@@H](Cc3ccccc3)NC(=O)[C@H](Cc3c[nH]cn3)NC1=O)C(=O)N[C@@H](C)C(=O)N[C@@H](CCCCN)C(=O)N[C@@H](CCCCN)C(=O)N[C@@H](CCCCN)C(=O)N[C@@H](Cc1c[nH]c3ccccc13)C(=O)N2 [Chem. 79, c[c[Cys-Ala-His-D-Phe-Arg-2-Nal- Cys]-Ala-Lys-Lys-Lys-Trp]] (cyclo([2Nal]CAKKKWCAH[dF]R); disulfide 2-8) | 10.52 | 10.70 | 58 | – | –
3 | C[C@@H]1NC(=O)[C@@H]2CSSC[C@H](NC(=O)[C@H](Cc3c[nH]c4ccccc34)NC(=O)[C@H](CCCCN)NC(=O)[C@H](CCCCN)NC(=O)[C@H](CCCCN)NC1=O)C(=O)N1CC[C@H]1C(=O)N[C@@H](Cc1c[nH]cn1)C(=O)N[C@H](Cc1ccccc1)C(=O)N[C@@H](Cc1c[nH]cn1)C(=O)N[C@@H](Cc1c[nH]c3ccccc13)C(=O)N2 [Chem. 82, c[c[Cys-AZE-His-D-Phe-His-Trp-Cys]- Ala-Lys-Lys-Lys-Trp]] (cyclo(AKKKWC[Aze]H[dF]HWC); disulfide 6-12) | 10.15 | – | 178 | – | –
4 | C[C@@H]1NC(=O)[C@@H]2CSSC[C@H](NC(=O)[C@H](Cc3c[nH]c4ccccc34)NC(=O)[C@H](CCCCN)NC(=O)[C@H](CCCCN)NC(=O)[C@H](CCCCN)NC1=O)C(=O)N[C@H](CCCCN)C(=O)N[C@@H](Cc1c[nH]cn1)C(=O)N[C@H](Cc1ccccc1)C(=O)N[C@@H](Cc1c[nH]cn1)C(=O)N[C@@H](Cc1c[nH]c3ccccc13)C(=O)N2 [Chem. 84, c[c[Cys-D-Lys-His-D-Phe-His-Trp- Cys]-Ala-Lys-Lys-Lys-Trp]] (cyclo(AKKKWC[dK]H[dF]HWC); disulfide 6-12) | 9.72 | 9.23 | 74 | – | –
5 | NCCCC[C@H]1NC(=O)[C@@H]2CSSC[C@H](NC(=O)[C@H](Cc3c[nH]c4ccccc34)NC(=O)[C@H](Cc3c[nH]cn3)NC(=O)[C@@H](Cc3ccccc3)NC(=O)[C@H](Cc3c[nH]cn3)NC1=O)C(=O)N[C@H](CCCCN)C(=O)N[C@@H](Cc1c[nH]cn1)C(=O)N[C@H](Cc1ccccc1)C(=O)N[C@@H](Cc1c[nH]cn1)C(=O)N[C@@H](Cc1c[nH]c3ccccc13)C(=O)N2 [Chem. 86, c[c[Cys-D-Lys-His-D-Phe-His-Trp- Cys]-D-Lys-His-D-Phe-His-Trp]] (cyclo(C[dK]H[dF]HWC[dK]H[dF]HW); disulfide 1-7) | 8.02 | 7.84 | 10 | – | –
6 | C[C@@H]1NC(=O)[C@@H]2CSSC(C)(C)[C@H](NC(=O)[C@H](CCCNC(=N)N)NC(=O)[C@H](CCCCN)NC(=O)[C@H](CCCCN)NC(=O)[C@H](CCCCN)NC1=O)C(=O)N1CCC[C@H]1C(=O)N[C@@H](Cc1c[nH]cn1)C(=O)N[C@H](Cc1ccccc1)C(=O)N[C@@H](Cc1c[nH]cn1)C(=O)N[C@@H](Cc1c[nH]c3ccccc13)C(=O)N2 [Chem. 92, c[c[Pen-Pro-His-D-Phe-His-Trp-Cys]- Ala-Lys-Lys-Lys-Arg]] (cyclo(AKKKR[Pen]PH[dF]HWC); disulfide 6-12) | 10.40 | 9.89 | 362 | – | –
7 | C[C@@H]1NC(=O)[C@H]2NC(=O)[C@H](Cc3c[nH]c4ccccc34)NC(=O)[C@H](Cc3c[nH]cn3)NC(=O)[C@@H](Cc3ccccc3)NC(=O)[C@H](Cc3c[nH]cn3)NC(=O)[C@@H]3CCCN3C(=O)[C@H](CSSC2(C)C)NC(=O)[C@H](CCCNC(=N)N)NC(=O)[C@H](CCCCN)NC(=O)[C@H](CCCCN)NC(=O)[C@H](CCCCN)NC1=O [Chem. 93, c[c[Cys-Pro-His-D-Phe-His-Trp-Pen]- Ala-Lys-Lys-Lys-Arg]] (cyclo(AKKKRCPH[dF]HW[Pen]); disulfide 6-12) | 10.52 | 10.40 | 456 | – | –
8 | COc1ccc(C[C@@H]2NC(=O)[C@H](CCCNC(=N)N)NC(=O)[C@@H](Cc3ccccc3)NC(=O)[C@H](Cc3c[nH]cn3)NC(=O)[C@@H]3CCCN3C(=O)[C@@H]3CSSC[C@H](NC2=O)C(=O)N[C@@H](C)C(=O)N[C@@H](CCCCN)C(=O)N[C@@H](CCCCN)C(=O)N[C@@H](CCCCN)C(=O)N[C@@H](CCCNC(=N)N)C(=O)N3)cc1OC [Chem. 94, c[c[Cys-Pro-His-D-Phe-Arg-3,4- DiMeO-Phe-Cys]-Ala-Lys-Lys-Lys- Arg]] (cyclo(AKKKRCPH[dF]R[Phe(3,4-(OMe)2)]C); disulfide 6-12) | 9.60 | – | 26 | – | –
9 | C[C@@H]1NC(=O)[C@@H]2CSSC[C@H](NC(=O)[C@H](CCCNC(=N)N)NC(=O)[C@H](Cc3c[nH]cn3)NC(=O)[C@H](CCCCN)NC(=O)[C@H](CCCCN)NC1=O)C(=O)N1CCC[C@H]1C(=O)N[C@@H](Cc1c[nH]cn1)C(=O)N[C@H](Cc1ccccc1)C(=O)N[C@@H](Cc1c[nH]cn1)C(=O)N[C@@H](Cc1c[nH]c3ccccc13)C(=O)N2 [Chem. 95, c[c[Cys-Pro-His-D-Phe-His-Trp-Cys]- Ala-Lys-Lys-His-Arg]] (cyclo(AKKHRCPH[dF]HWC); disulfide 6-12) | 10.15 | 9.66 | 399 | – | –
10 | C[C@@H]1NC(=O)[C@@H]2CSSC[C@H](NC(=O)[C@H](CCCNC(=N)N)NC(=O)[C@H](CCCCN)NC(=O)[C@H](CCCCN)NC(=O)[C@H](CCCCN)NC1=O)C(=O)N1C[C@H](O)C[C@H]1C(=O)N[C@@H](Cc1c[nH]cn1)C(=O)N[C@H](Cc1ccccc1)C(=O)N[C@@H](Cc1c[nH]cn1)C(=O)N[C@@H](Cc1c[nH]c3ccccc13)C(=O)N2 [Chem. 97, c[c[Cys-Hyp-His-D-Phe-His-Trp-Cys]- Ala-Lys-Lys-Lys-Arg]] (cyclo(AKKKRC[Hyp]H[dF]HWC); disulfide 6-12) | 10.30 | 9.72 | 122 | – | –
11 | C[C@@H]1NC(=O)[C@@H]2CSSC[C@H](NC(=O)[C@H](CCCNC(=N)N)NC(=O)[C@H](CCCCN)NC(=O)[C@H](CCCCN)NC(=O)[C@H](CCCCN)NC1=O)C(=O)N1CSC[C@H]1C(=O)N[C@@H](Cc1c[nH]cn1)C(=O)N[C@H](Cc1ccccc1)C(=O)N[C@@H](Cc1c[nH]cn1)C(=O)N[C@@H](Cc1c[nH]c3ccccc13)C(=O)N2 [Chem. 100, c[c[Cys-THAZ-His-D-Phe-His-Trp- Cys]-Ala-Lys-Lys-Lys-Arg]] (cyclo(AKKKRC[Thz]H[dF]HWC); disulfide 6-12) | – | – | 925 | 10.40 | 10.70
